Measured values: US20200339625A1, “NOVEL RADIOMETAL-BINDING COMPOUNDS FOR DIAGNOSIS OR TREATMENT OF PROSTATE SPECIFIC MEMBRANE ANTIGEN-EXPRESSING CANCER” (PROVINCIAL HEALTH SERVICES AUTHORITY, priority 2017, published 2020)

Tests used:
[1] = system: mice bearing LNCaP tumor xenografts; experiment: PET/CT imaging of 68Ga-labeled compounds; assay type: in vivo; settings: for change of tumor uptake from 1 h to 3 h post-injection: PET/CT images; for blood retention (qualitative): PET/CT images at 1 h and 3 h post-injection, comparison within the figure
How it was run: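 Male NOD SCID IL2Rγ KO mice bore subcutaneous LNCaP xenografts (1×10^7 cells, tumours 5-8 mm) and received 6-8 MBq tracer via tail vein under 2% isoflurane. At 50 min p.i., a 10-min CT and a 10-min static PET were acquired. For the 3 h time point, scanning began at 170 min p.i. with a 15-min static PET.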

[2] = system: mice bearing PSMA-expressing LNCAP cancer xenografts; experiment: Biodistribution of 68Ga-labeled compounds; assay type: in vivo
How it was run: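 NOD-SCID IL2RγKO male mice carried subcutaneous LNCaP xenografts grown to 5-8 mm over 5-6 weeks. Organs and blood were collected at 1 or 3 h after injection of the radiotracer and gamma-counted. Uptake was normalized to injected dose via a standard curve and expressed as %ID/g.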

SMILES: O=C([O-])CN1CCN(CC(=O)[O-])CCN(CC(=O)NCCCC[C@H](NC(=O)CNC(=O)CCCc2ccccc2)C(=O)NC[C@H]2CC[C@H](C(=O)N[C@@H](Cc3ccc4ccccc4c3)C(=O)NCCCC[C@H](NC(=O)N[C@@H](CCC(=O)O)C(=O)O)C(=O)O)CC2)CCN(CC(=O)[O-])CC1.[68Ga+3] [^68Ga-HTK03056]
- change of tumor uptake from 1 h to 3 h post-injection [1]: uptake in tumors increases over time
- blood retention (qualitative) [1]: some extent of blood retention
- Adrenal glands uptake ([2]; 1 h post-injection): 3.78 ± 0.46 % ID/g
- Blood uptake ([2]; 1 h post-injection): 4.68 ± 1.09 % ID/g
- Bone uptake ([2]; 1 h post-injection): 0.76 ± 0.14 % ID/g
- Brain uptake ([2]; 1 h post-injection): 0.10 ± 0.03 % ID/g
- Fat uptake ([2]; 1 h post-injection): 0.87 ± 0.53 % ID/g
- Heart uptake ([2]; 1 h post-injection): 1.29 ± 0.34 % ID/g
- Intestine uptake ([2]; 1 h post-injection): 0.60 ± 0.14 % ID/g
- Kidneys uptake ([2]; 1 h post-injection): 123 ± 30.4 % ID/g
- Lacrimal uptake ([2]; 1 h post-injection): 1.35 ± 0.43 % ID/g
- Liver uptake ([2]; 1 h post-injection): 1.02 ± 0.34 % ID/g
- Lungs uptake ([2]; 1 h post-injection): 3.28 ± 0.85 % ID/g
- Muscle uptake ([2]; 1 h post-injection): 0.53 ± 0.11 % ID/g
- Pancreas uptake ([2]; 1 h post-injection): 0.85 ± 0.15 % ID/g
- Salivary uptake ([2]; 1 h post-injection): 3.34 ± 0.89 % ID/g
- Seminal uptake ([2]; 1 h post-injection): 0.74 ± 0.39 % ID/g
- Spleen uptake ([2]; 1 h post-injection): 3.92 ± 0.88 % ID/g
- Stomach uptake ([2]; 1 h post-injection): 0.27 ± 0.10 % ID/g
- Tail uptake ([2]; 1 h post-injection): 1.43 ± 0.34 % ID/g
- Testes uptake ([2]; 1 h post-injection): 0.98 ± 0.22 % ID/g
- Thyroid uptake ([2]; 1 h post-injection): 1.49 ± 0.44 % ID/g
- Tumor uptake ([2]; 1 h post-injection): 25.9 ± 3.21 % ID/g
- Tumor:Blood ratio ([2]; 1 h post-injection): 5.67 ± 0.97
- Tumor:Muscle ratio ([2]; 1 h post-injection): 49.7 ± 5.98
- Tumor:kidney ratio ([2]; 1 h post-injection): 0.22 ± 0.04
- Urine uptake ([2]; 1 h post-injection): 203 ± 88.0 % ID/g
- Adrenal glands uptake ([2]; 3 h post-injection): 3.95 ± 2.28 % ID/g
- Blood uptake ([2]; 3 h post-injection): 1.17 ± 0.36 % ID/g
- Bone uptake ([2]; 3 h post-injection): 1.93 ± 1.51 % ID/g
- Brain uptake ([2]; 3 h post-injection): 0.12 ± 0.05 % ID/g
- Fat uptake ([2]; 3 h post-injection): 0.58 ± 0.13 % ID/g
- Heart uptake ([2]; 3 h post-injection): 0.59 ± 0.26 % ID/g
- Intestine uptake ([2]; 3 h post-injection): 0.34 ± 0.04 % ID/g
- Kidneys uptake ([2]; 3 h post-injection): 31.1 ± 15.2 % ID/g
- Lacrimal uptake ([2]; 3 h post-injection): 3.01 ± 1.26 % ID/g
- Liver uptake ([2]; 3 h post-injection): 0.43 ± 0.08 % ID/g
- Lungs uptake ([2]; 3 h post-injection): 1.39 ± 0.53 % ID/g
- Muscle uptake ([2]; 3 h post-injection): 0.46 ± 0.30 % ID/g
- Pancreas uptake ([2]; 3 h post-injection): 0.41 ± 0.09 % ID/g
- Salivary uptake ([2]; 3 h post-injection): 2.06 ± 1.16 % ID/g
- Seminal uptake ([2]; 3 h post-injection): 0.29 ± 0.08 % ID/g
- Spleen uptake ([2]; 3 h post-injection): 2.10 ± 1.16 % ID/g
- Stomach uptake ([2]; 3 h post-injection): 0.14 ± 0.03 % ID/g
- Tail uptake ([2]; 3 h post-injection): 0.54 ± 0.22 % ID/g
- Testes uptake ([2]; 3 h post-injection): 0.56 ± 0.19 % ID/g
- Thyroid uptake ([2]; 3 h post-injection): 0.72 ± 0.29 % ID/g
- Tumor uptake ([2]; 3 h post-injection): 32.9 ± 10.9 % ID/g
- Tumor:Blood ratio ([2]; 3 h post-injection): 30.4 ± 13.2
- Tumor:Muscle ratio ([2]; 3 h post-injection): 98.6 ± 61.8
- Tumor:kidney ratio ([2]; 3 h post-injection): 1.22 ± 0.53
- Urine uptake ([2]; 3 h post-injection): 275 ± 158 % ID/g

SMILES: O=C([O-])CN1CCN(CC(=O)[O-])CCN(CC(=O)NCCCC[C@H](NC(=O)CNC(=O)CCCc2ccc([N+](=O)[O-])cc2)C(=O)NC[C@H]2CC[C@H](C(=O)N[C@@H](Cc3ccc4ccccc4c3)C(=O)NCCCC[C@H](NC(=O)N[C@@H](CCC(=O)O)C(=O)O)C(=O)O)CC2)CCN(CC(=O)[O-])CC1.[68Ga+3] [^68Ga-HTK03089]
- change of tumor uptake from 1 h to 3 h post-injection [1]: increases over time
- blood retention (qualitative) [1]: significantly higher blood retention
- Adrenal glands uptake ([2]; 1 h post-injection): 4.57 ± 1.06 % ID/g
- Blood uptake ([2]; 1 h post-injection): 6.69 ± 0.27 % ID/g
- Bone uptake ([2]; 1 h post-injection): 0.41 ± 0.08 % ID/g
- Brain uptake ([2]; 1 h post-injection): 0.09 ± 0.01 % ID/g
- Fat uptake ([2]; 1 h post-injection): 2.14 ± 0.29 % ID/g
- Heart uptake ([2]; 1 h post-injection): 1.73 ± 0.14 % ID/g
- Intestine uptake ([2]; 1 h post-injection): 0.76 ± 0.05 % ID/g
- Kidneys uptake ([2]; 1 h post-injection): 91.1 ± 7.42 % ID/g
- Lacrimal uptake ([2]; 1 h post-injection): 0.05 ± 0.03 % ID/g
- Liver uptake ([2]; 1 h post-injection): 1.33 ± 0.27 % ID/g
- Lungs uptake ([2]; 1 h post-injection): 4.68 ± 0.35 % ID/g
- Muscle uptake ([2]; 1 h post-injection): 0.79 ± 0.06 % ID/g
- Pancreas uptake ([2]; 1 h post-injection): 1.00 ± 0.07 % ID/g
- Salivary uptake ([2]; 1 h post-injection): 3.95 ± 0.32 % ID/g
- Seminal uptake ([2]; 1 h post-injection): 0.66 ± 0.24 % ID/g
- Spleen uptake ([2]; 1 h post-injection): 8.56 ± 3.07 % ID/g
- Stomach uptake ([2]; 1 h post-injection): 0.34 ± 0.07 % ID/g
- Tail uptake ([2]; 1 h post-injection): 2.54 ± 0.33 % ID/g
- Testes uptake ([2]; 1 h post-injection): 1.35 ± 0.14 % ID/g
- Thyroid uptake ([2]; 1 h post-injection): 2.32 ± 0.10 % ID/g
- Tumor uptake ([2]; 1 h post-injection): 21.7 ± 2.48 % ID/g
- Tumor:Blood ratio ([2]; 1 h post-injection): 3.25 ± 0.43
- Tumor:Muscle ratio ([2]; 1 h post-injection): 27.4 ± 4.01
- Urine uptake ([2]; 1 h post-injection): 47.9 ± 46.6 % ID/g
- Adrenal glands uptake ([2]; 3 h post-injection): 2.76 ± 0.44 % ID/g
- Blood uptake ([2]; 3 h post-injection): 2.52 ± 0.69 % ID/g
- Bone uptake ([2]; 3 h post-injection): 0.15 ± 0.05 % ID/g
- Brain uptake ([2]; 3 h post-injection): 0.04 ± 0.02 % ID/g
- Fat uptake ([2]; 3 h post-injection): 1.28 ± 0.25 % ID/g
- Heart uptake ([2]; 3 h post-injection): 0.68 ± 0.16 % ID/g
- Intestine uptake ([2]; 3 h post-injection): 0.45 ± 0.10 % ID/g
- Kidneys uptake ([2]; 3 h post-injection): 96.4 ± 21.9 % ID/g
- Lacrimal uptake ([2]; 3 h post-injection): 0.00 ± 0.00 % ID/g
- Liver uptake ([2]; 3 h post-injection): 0.73 ± 0.41 % ID/g
- Lungs uptake ([2]; 3 h post-injection): 2.14 ± 0.42 % ID/g
- Muscle uptake ([2]; 3 h post-injection): 0.29 ± 0.04 % ID/g
- Pancreas uptake ([2]; 3 h post-injection): 0.47 ± 0.07 % ID/g
- Salivary uptake ([2]; 3 h post-injection): 1.45 ± 0.33 % ID/g
- Seminal uptake ([2]; 3 h post-injection): 0.24 ± 0.05 % ID/g
- Spleen uptake ([2]; 3 h post-injection): 2.56 ± 0.89 % ID/g
- Stomach uptake ([2]; 3 h post-injection): 0.19 ± 0.04 % ID/g
- Tail uptake ([2]; 3 h post-injection): 1.01 ± 0.23 % ID/g
- Testes uptake ([2]; 3 h post-injection): 0.73 ± 0.16 % ID/g
- Thyroid uptake ([2]; 3 h post-injection): 0.98 ± 0.25 % ID/g
- Tumor uptake ([2]; 3 h post-injection): 31.2 ± 2.11 % ID/g
- Tumor:Blood ratio ([2]; 3 h post-injection): 13.1 ± 3.76
- Tumor:Muscle ratio ([2]; 3 h post-injection): 108 ± 13.6
- Urine uptake ([2]; 3 h post-injection): 88.5 ± 45.6 % ID/g
